Tests used:
Format in all cases: biochemical
ITK = ITK (Homo sapiens (Human), UniProt Q08881); experiment: IC50 against ITK
TXK = TXK (Homo sapiens (Human), UniProt P42681); experiment: IC50 against TXK; conditions: for TXK/ITK: ratio of TXK IC50 to ITK IC50
JAK3 = JAK3 (Homo sapiens (Human), UniProt P52333); experiment: IC50 against JAK3
BTK = BTK (Homo sapiens (Human), UniProt Q06187); experiment: IC50 against BTK
BTK, sequence (Q06187 whole entry, species assumed): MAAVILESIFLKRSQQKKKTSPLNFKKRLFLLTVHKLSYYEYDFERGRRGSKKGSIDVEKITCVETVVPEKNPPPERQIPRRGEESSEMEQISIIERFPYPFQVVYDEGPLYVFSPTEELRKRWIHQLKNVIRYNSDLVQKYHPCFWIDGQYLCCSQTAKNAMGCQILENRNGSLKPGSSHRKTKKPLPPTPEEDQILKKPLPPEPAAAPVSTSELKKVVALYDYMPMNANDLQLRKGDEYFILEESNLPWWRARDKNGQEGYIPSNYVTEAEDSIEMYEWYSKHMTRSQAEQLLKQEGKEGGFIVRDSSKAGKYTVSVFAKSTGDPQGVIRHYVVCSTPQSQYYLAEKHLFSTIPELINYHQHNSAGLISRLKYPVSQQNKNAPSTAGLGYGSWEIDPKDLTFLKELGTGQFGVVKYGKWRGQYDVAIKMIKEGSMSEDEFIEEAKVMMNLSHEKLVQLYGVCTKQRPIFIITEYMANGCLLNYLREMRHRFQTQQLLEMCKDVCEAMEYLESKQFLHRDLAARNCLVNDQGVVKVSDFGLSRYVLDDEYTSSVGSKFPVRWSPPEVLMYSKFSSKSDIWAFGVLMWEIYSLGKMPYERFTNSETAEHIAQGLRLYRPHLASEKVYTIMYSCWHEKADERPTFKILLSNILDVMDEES

TXK, sequence (P42681 whole entry, species assumed): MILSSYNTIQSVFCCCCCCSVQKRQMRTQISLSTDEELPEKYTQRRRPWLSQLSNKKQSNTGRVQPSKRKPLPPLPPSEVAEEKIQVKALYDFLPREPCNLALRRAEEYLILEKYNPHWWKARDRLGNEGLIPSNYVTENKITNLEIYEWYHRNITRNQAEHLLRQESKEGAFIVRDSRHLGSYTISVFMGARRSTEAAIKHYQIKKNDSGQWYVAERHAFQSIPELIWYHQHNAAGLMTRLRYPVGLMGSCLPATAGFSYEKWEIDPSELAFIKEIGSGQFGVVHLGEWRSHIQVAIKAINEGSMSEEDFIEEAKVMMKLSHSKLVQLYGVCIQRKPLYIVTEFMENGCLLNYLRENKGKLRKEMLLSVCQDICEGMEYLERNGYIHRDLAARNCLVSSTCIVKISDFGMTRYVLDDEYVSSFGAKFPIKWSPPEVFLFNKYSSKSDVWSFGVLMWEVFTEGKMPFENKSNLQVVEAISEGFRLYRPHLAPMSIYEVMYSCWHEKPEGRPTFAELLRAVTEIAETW
ITK, sequence (Q08881 whole entry): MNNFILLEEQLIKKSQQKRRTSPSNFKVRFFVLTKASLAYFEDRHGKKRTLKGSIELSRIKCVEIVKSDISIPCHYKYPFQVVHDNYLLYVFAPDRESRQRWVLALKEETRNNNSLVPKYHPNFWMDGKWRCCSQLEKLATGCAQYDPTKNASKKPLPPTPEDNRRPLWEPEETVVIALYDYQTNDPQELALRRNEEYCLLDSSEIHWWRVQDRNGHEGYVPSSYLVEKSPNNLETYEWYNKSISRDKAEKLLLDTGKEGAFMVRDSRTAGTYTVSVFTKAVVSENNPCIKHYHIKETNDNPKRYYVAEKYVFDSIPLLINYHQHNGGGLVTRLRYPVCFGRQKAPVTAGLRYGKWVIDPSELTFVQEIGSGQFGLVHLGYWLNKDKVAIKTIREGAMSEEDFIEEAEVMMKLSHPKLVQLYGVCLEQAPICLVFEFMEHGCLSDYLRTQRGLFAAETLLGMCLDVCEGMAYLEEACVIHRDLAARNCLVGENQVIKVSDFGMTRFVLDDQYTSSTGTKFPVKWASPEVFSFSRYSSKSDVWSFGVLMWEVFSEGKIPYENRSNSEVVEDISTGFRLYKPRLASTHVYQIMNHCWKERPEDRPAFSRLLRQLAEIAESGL
JAK3, sequence (P52333 whole entry, species assumed): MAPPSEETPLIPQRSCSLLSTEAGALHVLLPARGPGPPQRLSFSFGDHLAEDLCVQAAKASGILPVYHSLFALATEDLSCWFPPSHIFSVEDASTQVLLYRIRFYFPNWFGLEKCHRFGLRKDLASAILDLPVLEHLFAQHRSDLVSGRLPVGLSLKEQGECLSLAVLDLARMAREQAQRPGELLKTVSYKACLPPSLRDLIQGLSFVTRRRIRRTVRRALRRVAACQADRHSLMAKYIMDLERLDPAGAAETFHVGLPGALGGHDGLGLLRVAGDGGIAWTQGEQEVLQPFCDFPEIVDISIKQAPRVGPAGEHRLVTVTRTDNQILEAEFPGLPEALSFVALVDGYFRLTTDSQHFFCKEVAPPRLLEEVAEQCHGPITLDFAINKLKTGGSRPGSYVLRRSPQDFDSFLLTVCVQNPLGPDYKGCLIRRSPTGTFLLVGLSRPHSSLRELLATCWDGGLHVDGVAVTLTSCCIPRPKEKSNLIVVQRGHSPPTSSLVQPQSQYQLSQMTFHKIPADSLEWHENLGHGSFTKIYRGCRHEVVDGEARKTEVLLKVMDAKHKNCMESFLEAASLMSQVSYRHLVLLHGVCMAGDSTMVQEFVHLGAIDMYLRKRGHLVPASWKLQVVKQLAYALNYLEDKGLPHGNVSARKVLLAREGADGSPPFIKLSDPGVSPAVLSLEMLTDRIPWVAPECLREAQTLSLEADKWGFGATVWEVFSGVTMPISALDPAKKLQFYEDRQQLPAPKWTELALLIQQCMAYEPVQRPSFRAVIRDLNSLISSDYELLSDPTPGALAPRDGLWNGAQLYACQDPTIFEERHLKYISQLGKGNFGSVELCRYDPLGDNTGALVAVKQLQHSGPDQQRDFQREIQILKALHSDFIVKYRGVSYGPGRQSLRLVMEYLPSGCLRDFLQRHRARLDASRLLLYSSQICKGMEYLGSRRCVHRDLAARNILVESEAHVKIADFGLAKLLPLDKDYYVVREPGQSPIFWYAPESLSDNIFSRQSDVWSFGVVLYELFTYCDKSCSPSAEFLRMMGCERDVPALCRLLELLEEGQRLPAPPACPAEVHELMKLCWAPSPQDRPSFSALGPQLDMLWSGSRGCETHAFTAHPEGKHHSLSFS

SMILES | IC50 (ITK) [nM] | IC50 (TXK) [nM] | TXK/ITK (TXK) | IC50 (JAK3) [nM] | IC50 (BTK) [nM]
C=CC(=O)N1CCCN(C(=O)c2cc(Sc3cnc(NC(=O)C4CCC4)s3)c(C)cc2OC)C[C@H]1C [Compound 86] | 10 to 100 | 1000 to 10000 | 227.64 | ≥ 10000 | ≥ 10000
C=CC(=O)N1CCN(C(=O)c2cc(Sc3cnc(NC(=O)c4ccncc4)s3)c(C)cc2OC)CC1 [Compound 87] | < 10 | 100 to 1000 | 74.161 | 1000 to 10000 | 100 to 1000
C=C(CN(C)C)C(=O)N1CCCN(C(=O)c2cc(Sc3cnc(NC(=O)C4CC4)s3)c(C)cc2OC)C[C@H]1C [Compound 88] | 100 to 1000 | ≥ 10000 | 30.436 | ≥ 10000 | ≥ 10000
C=CC(=O)N1CCN(C(=O)c2cc(Sc3cnc(NC(=O)c4cccnc4)s3)c(C)cc2OC)CC1 [Compound 89] | < 10 | 100 to 1000 | 45.743 | 1000 to 10000 | 100 to 1000
C=CC(=O)N1CCN(C(=O)c2cc(Sc3cnc(NC(=O)c4cnn(C)c4)s3)c(C)cc2OC)CC1 [Compound 91] | < 10 | 10 to 100 | 20.093 | 100 to 1000 | 10 to 100
C=CC(=O)N1CCN(C(=O)c2cc(Sc3cnc(NC(=O)c4cocn4)s3)c(C)cc2OC)CC1 [Compound 92] | < 10 | 100 to 1000 | 19.123 | 100 to 1000 | 100 to 1000
C=CC(=O)N1CCCN(C(=O)c2cc(Sc3cnc(NC(=O)c4cnsc4)s3)c(C)cc2OC)C[C@H]1C [Compound 93] | < 10 | 100 to 1000 | 252.91 | ≥ 10000 | 1000 to 10000
COc1cc(C)c(Sc2cnc(NC(=O)C3CC3)s2)cc1C(=O)N1CCCN(C(=O)/C=C/CN(C)C)[C@H](C)C1 [Compound 94] | 100 to 1000 | ≥ 10000 | 61.81 | ≥ 10000 | ≥ 10000
C=CC(=O)N1CCN(C(=O)c2cc(Sc3cnc(NC(=O)c4ccccn4)s3)c(C)cc2OC)CC1 [Compound 95] | 10 to 100 | 100 to 1000 | 14.201 | 1000 to 10000 | 100 to 1000
C=CC(=O)N1CCN(C(=O)c2cc(Sc3cnc(NC(=O)c4nccn4C)s3)c(C)cc2OC)CC1 [Compound 96] | < 10 | 10 to 100 | 11.966 | 100 to 1000 | 100 to 1000
C=CC(=O)N1CCN(C(=O)c2cc(Sc3cnc(NC(=O)c4cn(C)cn4)s3)c(C)cc2OC)CC1 [Compound 97] | < 10 | 100 to 1000 | 12.995 | 1000 to 10000 | 100 to 1000
C=CC(=O)N1CCN(C(=O)c2cc(Sc3cnc(Nc4ccccn4)s3)c(C)cc2OC)CC1 [Compound 98] | < 10 | < 10 | 8.2157 | 10 to 100 | < 10
C=CC(=O)N1CCN(C(=O)c2cc(Sc3cnc(NC(=O)C4CC4)s3)c(C)cc2Cl)C[C@H]1CC [Compound 99] | 10 to 100 | 10 to 100 | 4.279 | 100 to 1000 | 1000 to 10000
C=CC(=O)N1CCN(C(=O)c2cc(Sc3cnc(NC(=O)C4CC4)s3)c(C)cc2C)C[C@H]1CC [Compound 100] | < 10 | 10 to 100 | 8.8107 | 100 to 1000 | 1000 to 10000
C=CC(=O)N1CCN(C(=O)c2cc(Sc3cnc(NC(=O)C4CC4)s3)c(Cl)cc2C)C[C@H]1CC [Compound 101] | 10 to 100 | 100 to 1000 | 14.4 | 100 to 1000 | ≥ 10000
C=CC(=O)N1CCN(C(=O)c2cc(Sc3cnc(NC(=O)c4cnn(CCN(C)C)c4)s3)c(C)cc2OC)CC1 [Compound 102] | < 10 | 10 to 100 | 32.9 | 100 to 1000 | 10 to 100
C=CC(=O)N1CCCN(C(=O)c2cc(Sc3cnc(Nc4ccccn4)s3)c(C)cc2OC)C[C@H]1C [Compound 103] | < 10 | 10 to 100 | 47.6 | 100 to 1000 | 100 to 1000
C=CC(=O)N1CCN(C(=O)c2cc(Sc3cnc(NC(=O)C4CC4)s3)c(C)cc2CC)C[C@H]1CC [Compound 104] | < 10 | 10 to 100 | 3.6 | 100 to 1000 | 100 to 1000
C=CC(=O)N1CCCN(C(=O)c2cc(Sc3cnc(NC(=O)C4CC4)s3)c(C)cc2CC)C[C@H]1C [Compound 105] | < 10 | 100 to 1000 | 12.3 | 1000 to 10000 | 100 to 1000
C=CC(=O)N1CCN(C(=O)c2cc(Sc3cnc(NC(=O)C4CC4)s3)c(C)cc2CC)CC1 [Compound 106] | < 10 | < 10 | 2.9 | 10 to 100 | 10 to 100

SMILES | IC50 (ITK) [nM] | IC50 (TXK) [nM] | TXK/ITK (TXK) | IC50 (JAK3) [nM] | IC50 (BTK) [nM]
C=CC(=O)N1CCN(C(=O)c2cc(Sc3cnc(NC(=O)c4cccc(CN(C)C)c4)s3)c(C)cc2C)CC1 [Compound 107] | < 10 | 10 to 100 | 61.8 | 100 to 1000 | 100 to 1000
C=CC(=O)N1CCN(C(=O)c2cc(Sc3cnc(NC(=O)c4cnn(C)c4)s3)c(C)cc2C)CC1 [Compound 108] | < 10 | 10 to 100 | 12.1 | 100 to 1000 | 100 to 1000
C=CC(=O)N1CCN(C(=O)c2cc(Sc3cnc(NC(=O)c4ccsc4)s3)c(C)cc2C)CC1 [Compound 109] | < 10 | 10 to 100 | 13.5 | 10 to 100 | 10 to 100
C=CC(=O)N1CCCN(C(=O)c2cc(Sc3cnc(NC(=O)N(C)C)s3)c(C)cc2OC)C[C@H]1C [Compound 110] | 100 to 1000 | ≥ 10000 | 46.6 | 1000 to 10000 | ≥ 10000
C=CC(=O)N1CCCN(C(=O)c2cc(Sc3cnc(NC(=O)C4CC4)s3)c(C)cc2OC)C[C@H]1CC [Compound 111] | < 10 | 100 to 1000 | 81.1 | 1000 to 10000 | 100 to 1000
C=CC(=O)N1CCCN(C(=O)c2cc(Sc3cnc(NC(=O)C4CC4)s3)c(C)cc2C)C[C@H]1CC [Compound 112] | < 10 | 100 to 1000 | 118.0 | 1000 to 10000 | 100 to 1000
C=CC(=O)N1CCN(C(=O)c2cc(Sc3cnc(NC(=O)c4ccsc4)s3)c(C)cc2OC)C[C@H]1CC [Compound 113] | < 10 | 10 to 100 | 12.1 | 100 to 1000 | 10 to 100
C=CC(=O)N1CCN(C(=O)c2cc(Sc3cnc(NC(=O)c4cnsc4)s3)c(C)cc2OC)C[C@H]1CC [Compound 114] | < 10 | 10 to 100 | 30.1 | 1000 to 10000 | 100 to 1000
C=CC(=O)N1CCN(C(=O)c2cc(Sc3cnc(NC(=O)c4cnn(C)c4)s3)c(C)cc2OC)C[C@H]1CC [Compound 115] | < 10 | 10 to 100 | 9.8 | 1000 to 10000 | 100 to 1000
C=CC(=O)N1CCN(C(=O)c2cc(Sc3cnc(NC(=O)c4cnn(CCN(C)C)c4)s3)c(C)cc2OC)C[C@H]1CC [Compound 116] | < 10 | 10 to 100 | 23.3 | 1000 to 10000 | 100 to 1000
C=CC(=O)N1CCN(C(=O)c2cc(Sc3cnc(NC(=O)c4cccc(CN(C)C)c4)s3)c(C)cc2OC)C[C@H]1CC [Compound 117] | < 10 | 10 to 100 | 65.5 | 1000 to 10000 | 100 to 1000
C=CC(=O)N1CCN(C(=O)c2cc(Sc3cnc(NC(=O)C4CC4)s3)c(C)cc2C)C[C@H]1C#N [Compound 118] | ≥ 10000 | < 10 | – | < 10 | < 10
C=CC(=O)N1CCN(C(=O)c2cc(Sc3cnc(NC(C)=O)s3)c(C)cc2C)C[C@H]1C#N [Compound 119] | < 10 | < 10 | 3.2 | < 10 | 10 to 100
C=CC(=O)N1CCCN(C(=O)c2cc(Sc3cnc(NC(=O)c4ccsc4)s3)c(C)cc2OC)C[C@H]1CC [Compound 120] | < 10 | 100 to 1000 | 66.4 | 1000 to 10000 | 100 to 1000
C=CC(=O)N1CCCN(C(=O)c2cc(Sc3cnc(NC(=O)c4cnsc4)s3)c(C)cc2OC)C[C@H]1CC [Compound 121] | < 10 | 100 to 1000 | 146.1 | 1000 to 10000 | 100 to 1000
C=CC(=O)N1CCCN(C(=O)c2cc(Sc3cnc(NC(=O)c4ccsc4)s3)c(C)cc2C)C[C@H]1CC [Compound 122] | < 10 | 100 to 1000 | 118.5 | 100 to 1000 | 100 to 1000
C=CC(=O)N1CCCN(C(=O)c2cc(Sc3cnc(NC(=O)c4cnsc4)s3)c(C)cc2C)C[C@H]1CC [Compound 123] | < 10 | 100 to 1000 | 144.0 | 1000 to 10000 | 100 to 1000
C=CC(=O)N1CCN(C(=O)c2cc(Sc3cnc(NC(=O)c4cccc(CN(C)C)c4)s3)c(C)cc2OC)C[C@H]1C#N [Compound 124] | < 10 | < 10 | – | < 10 | < 10
C=CC(=O)N1CCN(C(=O)c2cc(Sc3cnc(NC(=O)c4cccc(CN(C)C)c4)s3)c(C)cc2C)C[C@H]1C#N [Compound 125] | < 10 | < 10 | 2.3 | < 10 | 10 to 100
C=CC(=O)N1CCN(C(=O)c2cc(Sc3cnc(Nc4ccccn4)s3)c(Cl)cc2C)CC1 [Compound 126] | < 10 | 10 to 100 | 13.5 | 10 to 100 | 10 to 100

From patent US11008314B2, “Compounds and methods for modulating interleukin-2-inducible t-cell kinase” (CORVUS PHARMACEUTICALS, INC., priority 2016, dated 2021)
